Earlier results as cited in US20260048172A1, “WOUND DRESSINGS” (ConvaTec Limited, priority 2023, published 2026).

citric acid [citric/citrate]
pka (third) (Ka = 0.0000004): pka = 6.4 | pka (second) (Ka = 0.0000200): pka = 4.7 | pka (first) (Ka = 0.0007943): pka = 3.1
